Test results: ChEMBL document CHEMBL1136769 (J Med Chem, 2003)

Key:
[1] = biological target: Sodium-dependent dopamine transporter (Macaca mulatta); experiment: Inhibition of [3H]WIN-35428 Binding to the Dopamine Transporter in Rhesus (Macaca mulatta) orCynomolgus Monkey (Macaca fascicularis) Caudate-Putamen
[2] = Inhibition of [3H]citalopram Binding to the Serotonin Transporter in Rhesus (Macaca mulatta) or Cynomolgus Monkey (Macaca fascicularis) Caudate-Putamen

| Structure (SMILES) | IC50 [1] [nM] | IC50 [2] [µM] |
| --- | --- | --- |
| COC(=O)[C@@H](c1ccc2ccccc2c1)[C@@H]1CCCCO1 | 430 | 1 |
| COC(=O)[C@H](c1ccc(Cl)c(Cl)c1)[C@@H]1CCCCO1 (single isomer, unassigned; 15) |  | > 10 |
| COC(=O)C(c1ccc(Cl)c(Cl)c1)C1CCCCC1 (configuration not stated) |  | 12 |
| COC(=O)[C@@H](c1ccccc1)[C@@H]1CCCCO1 | 3000 | > 100 |
| COC(=O)C(c1ccc(Cl)c(Cl)c1)C1CCCC1 (configuration not stated) | 47 | 7 |
| N#CC(c1ccc(Cl)c(Cl)c1)C1CCCC1 (configuration not stated) | 128 | 10 |
| COC(=O)[C@H](c1ccc2ccccc2c1)[C@@H]1CCCCO1 (single isomer, unassigned) | 4000 | 10 |
| COC(=O)[C@@H](c1ccc(Cl)c(Cl)c1)[C@@H]1CCCCO1 (stereo in doubt; 12) |  | 1.66 |
| COC(=O)[C@@H](c1ccc(Cl)c(Cl)c1)[C@@H]1CCCCO1 (stereo in doubt; 4c) |  | 2.18 |
| COC(=O)[C@H](c1ccc(Cl)c(Cl)c1)[C@H]1CCCCO1 |  | > 10 |
| COC(=O)[C@H](c1ccccc1)[C@@H]1CCCCO1 (single isomer, unassigned) | 13000 | > 100 |
| COC(=O)[C@H](c1ccc(Cl)c(Cl)c1)[C@@H]1CCCCO1 (single isomer, unassigned; 5c) |  | 7.79 |
| COC(=O)C(c1ccccc1)C1CCCCN1 (racemic) [METHYLPHENIDATE] |  | > 100 |
| N#CC(c1ccc(Cl)c(Cl)c1)C1CCCCC1 (configuration not stated) | 127 | 8 |
| COC(=O)[C@@H](c1ccc(Cl)c(Cl)c1)[C@H]1CCCCO1 (single isomer, unassigned) |  | 7.8 |
